From patent US6884820B2, “5,6,7,8-tetrahydronaphthalen-2-yl-7-fluoroalkyl-heptatrienoic acid derivatives having serum glucose reducing activity” (Allergan, Inc., priority 2003, dated 2005)

Legend:
RXRα [1] = molecular target: T1, RXRα (Homo sapiens, UniProt P19793); assay: holoreceptor transactivation assay, RXRα; settings: for RXR α transactivation efficacy as a percentage compared to the standard compound: value in parentheses, relative to standard compound of U.S. Pat. No. 6,114,533
T1 sequence (P19793 1-462): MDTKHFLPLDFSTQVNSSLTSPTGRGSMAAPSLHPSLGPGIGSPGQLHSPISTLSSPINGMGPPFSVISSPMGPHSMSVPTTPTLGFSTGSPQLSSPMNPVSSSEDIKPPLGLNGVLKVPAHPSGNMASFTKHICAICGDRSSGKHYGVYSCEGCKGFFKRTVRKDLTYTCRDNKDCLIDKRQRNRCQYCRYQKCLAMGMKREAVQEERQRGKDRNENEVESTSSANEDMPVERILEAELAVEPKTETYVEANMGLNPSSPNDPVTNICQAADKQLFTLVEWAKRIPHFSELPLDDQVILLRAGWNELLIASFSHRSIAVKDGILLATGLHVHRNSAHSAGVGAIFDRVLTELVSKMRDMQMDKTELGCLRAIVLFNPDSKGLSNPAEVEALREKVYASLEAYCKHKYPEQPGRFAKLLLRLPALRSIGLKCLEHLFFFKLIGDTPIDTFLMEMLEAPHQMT
Description: (§1) The results obtained in this assay are expressed in EC50 numbers, as they are also in the chimeric receptor transactivation assay.
(§2) Efficacy in a transactivation assay is expressed as a percentage of the maximum potency attained by the compound compared to a standard which, in this case, is the compound named (2E, 4E, 1′S, 2′S)-3-methyl-5-[2′-methyl-2′-(5,5,8,8-tetramethyl-5,6,7,8-tetrahydro-naphthalen-2-yl)-cyclopropyl]-penta-2,4-dienoic acid.
(§3) Particularly, the transactivation data pertaining to activation of the RAR receptors were obtained in the chimeric assay, and the transactivation data pertaining to the activation of RXR receptors were obtained in the holoreceptor assay.

RXRγ = molecular target: T2, RXRγ (Homo sapiens, UniProt P48443); assay: holoreceptor transactivation assay, RXRγ; settings: for RXR γ transactivation efficacy as a percentage compared to the standard compound: value in parentheses, relative to standard compound of U.S. Pat. No. 6,114,533
T2 sequence (P48443 1-463): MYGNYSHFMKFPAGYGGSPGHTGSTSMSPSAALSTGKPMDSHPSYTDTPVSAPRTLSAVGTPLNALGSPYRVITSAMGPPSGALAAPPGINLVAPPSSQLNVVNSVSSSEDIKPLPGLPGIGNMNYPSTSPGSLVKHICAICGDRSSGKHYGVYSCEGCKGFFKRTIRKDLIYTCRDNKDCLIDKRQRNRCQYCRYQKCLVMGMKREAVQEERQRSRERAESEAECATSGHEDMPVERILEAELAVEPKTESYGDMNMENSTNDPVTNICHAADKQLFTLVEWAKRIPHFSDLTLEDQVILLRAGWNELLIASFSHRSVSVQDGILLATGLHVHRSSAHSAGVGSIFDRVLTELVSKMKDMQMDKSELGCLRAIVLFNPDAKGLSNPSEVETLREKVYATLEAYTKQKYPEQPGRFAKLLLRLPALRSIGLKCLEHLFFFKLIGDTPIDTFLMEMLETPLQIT
Description: as §1, §2, §3

RXRβ [2] = molecular target: T3, RXRβ (Homo sapiens, UniProt P28702); assay: holoreceptor transactivation assay, RXRβ; settings: for RXR β transactivation efficacy as a percentage compared to the standard compound: value in parentheses, relative to standard compound of U.S. Pat. No. 6,114,533
T3 sequence (P28702 1-533): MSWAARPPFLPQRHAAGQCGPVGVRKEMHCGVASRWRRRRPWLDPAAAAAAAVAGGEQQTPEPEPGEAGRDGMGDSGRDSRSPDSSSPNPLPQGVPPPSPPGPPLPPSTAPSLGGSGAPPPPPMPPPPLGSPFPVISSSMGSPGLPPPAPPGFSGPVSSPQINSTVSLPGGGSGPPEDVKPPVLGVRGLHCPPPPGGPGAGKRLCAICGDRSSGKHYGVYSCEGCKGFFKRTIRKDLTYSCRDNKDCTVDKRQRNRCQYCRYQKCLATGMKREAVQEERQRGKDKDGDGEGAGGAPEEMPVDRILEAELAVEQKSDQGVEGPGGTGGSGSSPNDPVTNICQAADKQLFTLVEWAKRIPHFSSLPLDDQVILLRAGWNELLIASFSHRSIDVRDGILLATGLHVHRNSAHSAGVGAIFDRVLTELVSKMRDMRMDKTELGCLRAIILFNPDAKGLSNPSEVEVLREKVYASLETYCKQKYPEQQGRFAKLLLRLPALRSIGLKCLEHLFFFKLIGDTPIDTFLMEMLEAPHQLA
Description: as §1, §2, §3

RXRβ [3] = molecular target: T3, RXRβ; assay: ligand binding assay, RXRβ
Description: (§4) The results of the ligand binding assay are expressed in Ki numbers.

RARβ [4] = molecular target: T4, RARβ (Homo sapiens, UniProt P10826); assay: ligand binding assay, RARβ
T4 sequence (P10826 1-455): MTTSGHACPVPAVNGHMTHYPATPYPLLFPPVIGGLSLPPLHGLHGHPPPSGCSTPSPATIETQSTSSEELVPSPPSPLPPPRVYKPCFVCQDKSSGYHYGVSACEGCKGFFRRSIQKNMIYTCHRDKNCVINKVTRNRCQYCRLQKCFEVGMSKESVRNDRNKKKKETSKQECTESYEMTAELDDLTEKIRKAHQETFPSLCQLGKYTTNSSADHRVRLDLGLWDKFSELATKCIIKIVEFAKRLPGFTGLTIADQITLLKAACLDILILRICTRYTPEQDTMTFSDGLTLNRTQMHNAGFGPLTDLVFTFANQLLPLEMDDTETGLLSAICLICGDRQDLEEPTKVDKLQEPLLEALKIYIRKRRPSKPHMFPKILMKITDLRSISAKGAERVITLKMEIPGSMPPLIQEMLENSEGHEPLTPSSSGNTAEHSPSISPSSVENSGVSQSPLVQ
Description: as §4

RARγ [5] = molecular target: T5, RARγ (Homo sapiens, UniProt P13631); assay: ligand binding assay, RARγ
T5 sequence (P13631 1-454): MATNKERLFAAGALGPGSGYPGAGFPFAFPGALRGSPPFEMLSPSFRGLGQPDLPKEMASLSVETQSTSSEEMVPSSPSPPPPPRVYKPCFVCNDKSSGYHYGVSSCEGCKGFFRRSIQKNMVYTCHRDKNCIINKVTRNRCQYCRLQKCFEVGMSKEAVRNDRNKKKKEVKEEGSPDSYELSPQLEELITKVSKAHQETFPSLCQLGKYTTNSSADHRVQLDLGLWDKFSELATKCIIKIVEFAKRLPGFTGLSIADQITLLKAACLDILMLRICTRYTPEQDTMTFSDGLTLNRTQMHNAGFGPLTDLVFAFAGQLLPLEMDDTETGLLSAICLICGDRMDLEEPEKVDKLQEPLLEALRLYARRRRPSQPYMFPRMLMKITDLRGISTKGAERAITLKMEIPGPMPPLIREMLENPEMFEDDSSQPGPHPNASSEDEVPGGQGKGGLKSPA
Description: as §4

RXRα [6] = molecular target: T1, RXRα; assay: ligand binding assay, RXRα
Description: as §4

RARβ [7] = molecular target: T6, RARβ (Homo sapiens, UniProt P10826); assay: chimeric receptor transactivation assay, RARβ; settings: for RAR β transactivation efficacy as a percentage compared to the standard compound: value in parentheses, relative to standard compound of U.S. Pat. No. 6,114,533
T6 sequence (P10826 183-417 limits assumed): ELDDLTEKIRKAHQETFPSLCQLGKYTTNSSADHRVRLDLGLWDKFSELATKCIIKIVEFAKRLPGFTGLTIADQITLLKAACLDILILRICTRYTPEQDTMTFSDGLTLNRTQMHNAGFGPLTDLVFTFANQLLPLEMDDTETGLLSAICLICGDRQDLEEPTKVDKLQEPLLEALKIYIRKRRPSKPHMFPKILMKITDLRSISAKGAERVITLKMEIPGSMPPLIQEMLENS
Description: as §2, §3

RARα = molecular target: T7, RARα (Homo sapiens, UniProt P10276); assay: ligand binding assay, RARα
T7 sequence (P10276 1-462): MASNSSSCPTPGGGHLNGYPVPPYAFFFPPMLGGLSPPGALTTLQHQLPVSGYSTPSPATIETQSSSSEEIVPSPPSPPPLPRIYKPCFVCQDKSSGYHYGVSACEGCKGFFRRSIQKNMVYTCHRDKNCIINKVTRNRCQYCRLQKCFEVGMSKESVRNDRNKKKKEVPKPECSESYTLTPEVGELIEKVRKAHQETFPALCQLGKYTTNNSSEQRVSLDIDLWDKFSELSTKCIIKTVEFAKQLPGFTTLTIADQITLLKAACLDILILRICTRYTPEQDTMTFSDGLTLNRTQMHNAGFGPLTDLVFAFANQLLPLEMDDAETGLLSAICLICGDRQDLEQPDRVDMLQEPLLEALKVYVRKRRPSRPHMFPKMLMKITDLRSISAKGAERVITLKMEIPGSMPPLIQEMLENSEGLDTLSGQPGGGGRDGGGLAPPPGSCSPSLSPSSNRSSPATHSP
Description: as §4

RARγ [8] = molecular target: T8, RARγ (Homo sapiens, UniProt P13631); assay: chimeric receptor transactivation assay, RARγ
T8 sequence (P13631 185-419 limits assumed): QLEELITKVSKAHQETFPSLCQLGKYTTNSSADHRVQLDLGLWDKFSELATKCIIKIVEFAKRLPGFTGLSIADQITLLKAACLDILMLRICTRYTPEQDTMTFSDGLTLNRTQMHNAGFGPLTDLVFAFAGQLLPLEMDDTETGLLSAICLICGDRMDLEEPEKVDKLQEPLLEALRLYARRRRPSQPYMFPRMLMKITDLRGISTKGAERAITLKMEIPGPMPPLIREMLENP
Description: as §2, §3

[9] = system: Female diabetic db/db mice; assay: serum glucose, triglyceride and thyroxine levels in female db/db mice; settings: for Glucose Day 0 / Triglycerides Day 0: Day 0 (pre-treatment), female db/db mice, group later given standard compound 5 mg/kg or Compound 6 50 mg/kg by oral gavage; for Glucose Day 3, 3 h / Triglycerides Day 3, 3 h / Glucose Day 6, 3 h: oral gavage daily
Protocol: An assay described below tests the effect of compounds of the invention on serum glucose, tryglyceride and thyroxine levels in female 9-10 weeks old db/db mice.
Female diabetic db/db (9-10 weeks old) mice were maintained on standard laboratory food and treated by oral gavage with vehicle (corn oil), standard compound (2E, 4E, 1′S, 2′S)-3-methyl-5-[2′-methyl-2′-(5,5,8,8-tetramethyl-5,6,7,8-tetrahydro-naphthalen-2-yl)-cyclopropyl]-penta-2,4-dienoic acid (5 mg/kg) or the test compound (5-100 mg/kg, as described in Table 2) daily for seven days at 8:00 AM. Blood samples (70 μ) were taken by orbital bleeding at 11:00 AM on day 0 (pre-treatment), day 3, and day 6. On day 7, a blood sample (700 μt) was taken at 11:00 AM and the animals were sacrificed. Glucose, triglyceride and thyroxine (T4) levels were determined on a Boehringer Manheim Hatachi Clinical Chemistry Analyzer using standard protocols provided by the manufacturer and reagents that were supplied in commercially available kits (glucose and T4: Boehringer Manheim; triglycerides: Roche Diagnostics).

[10] = standard compound 5 mg/kg, Compound 6 50 mg/kg

Row | Structure (SMILES) | EC50 (RXRα [1]) [nM] | RXR α transactivation efficacy as a percentage compared to the standard compound (RXRα [1]) [%] | EC50 (RXRγ) [nM] | RXR γ transactivation efficacy as a percentage compared to the standard compound (RXRγ) [%] | EC50 (RXRβ [2]) [nM] | RXR β transactivation efficacy as a percentage compared to the standard compound (RXRβ [2]) [%] | Ki (RXRβ [3]) [nM] | Ki (RARβ [4]) [nM] | Ki (RARγ [5]) [nM] | Ki (RXRα [6]) [nM] | EC50 (RARβ [7]) [nM] | RAR β transactivation efficacy as a percentage compared to the standard compound (RARβ [7]) [%] | Ki (RARα) [nM] | Glucose Day 0 [9] [mg/dL] | Triglycerides Day 0 [9] [mg/dL] | Glucose Day 3, 3 h [9, 10] [mg/dL] | Triglycerides Day 3, 3 h [9, 10] [mg/dL] | Glucose Day 6, 3 h [9, 10] [mg/dL] | other results
1 | CC(/C=C/C=C(c1cc2c(cc1O)C(C)(C)CCC2(C)C)C(F)(F)F)=C\C(=O)O (stereo in doubt) [Compound 4, (2E,4E,6Z)-8,8,8-Trifluoro-7-(3-hydroxy-5,5,8,8-tetramethyl-5,6,7,8-tetrahydro-naphthalen-2-yl)-3-methyl-octa-2,4,6-trienoic acid] | 9 | 65 | 16 | 69 | 67 | 54 | 2600 | 4400 | 496 | 471 | > 500 | ~30 | 2400 |  |  |  |  |  | EC50 (RARγ [8]): > 500 nM; RAR γ transactivation efficacy as a percentage compared to the standard compound (RARγ [8]; value in parentheses, relative to standard compound of U.S. Pat. No. 6,114,533): ~30%
2 | COc1cc2c(cc1C(=C/C=C/C(C)=C/C(=O)O)C(F)(F)F)C(C)(C)CCC2(C)C (stereo in doubt) [Compound 5, (2E,4E,6Z)-8,8,8-Trifluoro-7-(3-methoxy-5,5,8,8-tetramethyl-5,6,7,8-tetrahydro-naphthalen-2-yl)-3-methyl-octa-2,4,6-trienoic acid] | 0.6 | 112 | 2 | 121 | 5 | 111 | 423 | 484 | 1200 | 66 | 150 | 32 | 504 |  |  |  |  |  | 
3 | CCCOc1cc2c(cc1C(=C/C=C/C(C)=C/C(=O)O)C(F)(F)F)C(C)(C)CCC2(C)C (stereo in doubt) [Compound 7, (2E,4E,6Z)-8,8,8-Trifluoro-3-methyl-7-(5,5,8,8-tetramethyl-3-propoxy-5,6,7,8-tetrahydro-naphthalen-2-yl)-octa-2,4,6-trienoic acid] |  |  |  |  |  |  | 115 | 452 | > 10000 | 22 | 54 | 9 | 1800 |  |  |  |  |  | 
4 | CCOc1cc2c(cc1\C(=C/C=C/C(C)=C/C(=O)O)C(F)(F)F)C(C)(C)CCC2(C)C [Compound 6, (2E,4E,6Z)-7-(3-Ethoxy-5,5,8,8-tetramethyl-5,6,7 8-tetrahydro-naphthalen-2-yl)-8,8,8-trifluoro-3-methyl-octa-2,4,6-trienoic acid] | 10 | 17 | 25 | 17 | 97 | 30 | 68 | 372 | > 10000 | 14 | 67 | 15 | > 10000 | 561 ± 159 | 350 ± 69 | 442 ± 164 | 240 ± 192 | 483 ± 175 | 
5 | CC(/C=C/[C@@H]1C[C@]1(C)c1ccc2c(c1)C(C)(C)CCC2(C)C)=C\C(=O)O [Standard compound] |  |  |  |  |  |  |  |  |  |  |  |  |  | 526 ± 135 | 290 ± 55 | 444 ± 125 | 590 ± 422 | 399 ± 128 | T4 Day 7 ([9]; Day 7, oral gavage daily for seven days, standard compound 5 mg/kg, Compound 6 50 mg/kg): 1.5 ± 0.6 µg/dL; effect on serum thyroxine levels ([9]; diabetic mammals): reducing serum thyroxine levels
